The nature of data set [1]: in vitro. The settings on record: human, hi-hela cells. It is filed as cell-based. The protocol: (§1) HI-HeLa cells were infected with HRV-14 (unless otherwise noted) at a multiplicity of infection (m.o.i.) of 0.13 (virus particles/cell) or mock-infected with medium only. Infected or mock-infected cells were resuspended at 8×10^5 cells per mL and incubated with appropriate concentrations of compounds of formulas I and II. Two days later, XTT/PMS was added to test plates, and the amount of formazan produced was quantified spectrophotometrically at 450/650 nm. The EC50 was calculated as the concentration of compound that increased the percentage of formazan production in compound-treated, virus-infected cells to 50% of that produced by compound-free mock-infected cells. The 50% cytotoxic dose (CC50) was calculated as the concentration of compound that decreased the percentage of formazan produced in compound-treated, mock-infected cells to 50% of that produced in compound-free, mock-infected cells. The therapeutic index (TI) was calculated by dividing the CC50 by the EC50.
(§2) All strains of human rhinovims (HRV) for use in this assay were purchased from American Type Culture Collection (ATCC), except for HRV serotype-14, which was produced from the infectious cDNA clone, constructed and supplied to us by Dr. Roland Rueckert at the Institute for Molecular Virology, University of Wisconsin, Madison, Wis. HRV stocks were propagated, and antiviral assays were performed in HI-HeLa (ATCC). Cells were grown in Minimal Essential Medium, available from Life Technologies, with 10% fetal bovine serum.

In data set [2] the test system is HRV-14. Put plainly: Antirhinoviral HI-HeLa Cell Culture Assay (cell protection, XTT), HRV-14. It is filed as cell-based, human rhinovirus. The settings on record: for TI: CC50/EC50, HRV serotype-14, 2880 min; for EC50: Rhinovirus B, HRV14, 48 h, HRV serotype-14 infected HI-HeLa cells, XTT, two days. The method, then: In the Cell Protection Assay, the ability of compounds to protect cells against HRV infection was measured by the XTT dye reduction method. This method is described in O. S. Weislow, R. Kiser, D. L. Fine, J. Bader, R. H. Shoemaker, and M. R. Boyd, J. Natl. Cancer Inst. 1989, 81, 577-586, which document is entirely incorporated herein by reference.
as §1, §2
The compounds were tested against control compounds WIN 51711, WIN 52084, and WIN 54954, all obtained from Sterling-Winthrop Pharmaceuticals, and control compound Pirodavir, obtained from Janssen Pharmaceuticals. Antiviral data obtained for the test compounds are shown in Table 2 where all data are for HRV serotype-14 unless otherwise noted in parentheses.

Data set [3] has as its target T1, Rhinovirus 3C protease (RVP) serotype-14 (Human rhinovirus 14, UniProt P03303).
T1 construct: Recombinant Rhinovirus 3C proteases from serotypes 14, 16, 2 or 89 were prepared; made in house
Put plainly: Inhibition of Rhinovirus Protease, serotype 14 (FRET assay). Particulars: for Ki: 10 minute preincubation with 50 nM RVP prior to addition of substrate, read-out: INHIB (Ki); for kinact/KI: read-out: kobs/I. The class given is biochemical. The protocol: Stock solutions (50 mM, in DMSO) of various compounds were prepared; dilutions were in the same solvent. Recombinant Rhinovirus 3C proteases from serotypes 14, 16, 2 or 89 were prepared by the following standard chromatographic procedures: (1) ion exchange using Q Sepharose Fast Flow from Pharmacia; (2) affinity chromatography using Affi-Gel Blue from Biorad; and (3) sizing using Sephadex G-100 from Pharmacia. Assays contained 2% DMSO, 50 mM tris pH 7.6, 1 mM EDTA, a compound at the indicated concentrations, approximately 1 μM substrate, and 50-100 nM protease. For Ki determinations, the compound and the enzyme were preincubated for 10 minutes at 30° C. prior to addition of the substrate (substrate start). The kobs/I values were obtained from reactions initiated by addition of enzyme rather than substrate. RVP activity is measured in the fluorescence resonance energy transfer assay. The substrate was (N-terminal) DABCYL-(Gly-Arg-Ala-Val-Phe-Gln-Gly-Pro-Val-Gly)-EDANS. In the uncleaved peptide, the EDANS fluorescence was quenched by the proximal DABCYL moiety. When the peptide was cleaved, the quenching was relieved, and activity was measured as an increase in fluorescence signal.
In the above table, all data is for RVP serotype-14 unless otherwise noted in parentheses. All strains of human rhinovirus (HRV) were purchased from American Type Culture Collection (ATCC), except for serotype 14, which was produced from the infectious cDNA clone constructed and supplied to us by Dr. Roland Rueckert at the Institute for Molecular Virology, University of Wisconsin, Madison, Wis. The column designated INHIB represents the percent inhibition, with the concentration of the compound in μM indicated in parentheses, unless Ki was assigned as designated by (Ki), at 10 minute preincubation with 50 nM RVP prior to addition of substrate was used. The data in the column designated kobs/I was measured from progress curves in enzyme start experiments.

The values that follow come from US5962487A, “Antipicornaviral compounds and methods for their use and preparation” (Agouron Pharmaceuticals, Inc., priority 1997, dated 1999).

T1 sequence (P03303 1538-1719): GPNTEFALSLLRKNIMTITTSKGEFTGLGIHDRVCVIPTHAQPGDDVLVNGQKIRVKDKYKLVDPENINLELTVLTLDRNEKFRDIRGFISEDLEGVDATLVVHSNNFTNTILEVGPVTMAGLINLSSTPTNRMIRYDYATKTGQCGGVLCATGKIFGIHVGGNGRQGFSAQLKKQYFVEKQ

For `CCOC(=O)/C=C/[C@H](CCC(N)=O)NC(=O)[C@H](Cc1ccccc1)N(C)C(=O)[C@H](CCc1ccccc1)NC(=O)SCc1ccccc1` [Compound 9, Ethyl-3-(Benzylthiocarbonyl-L-hPhe-L-N-Me-Phe-L-Gln)-E-Propenoate], the CC50 at 48 h in data set [1] was determined as 56.2 µM. For the same compound, in data set [2], the TI is 225 and the EC50 came to 0.25 µM. In addition, in data set [3] (RVP serotype-14), the Ki is 4.4 µM. For the same compound, the kinact/KI in data set [3] is 57000 M⁻¹ s⁻¹.
`CCOC(=O)/C=C/C(CCC(N)=O)NC(=O)[C@H](Cc1ccccc1)N1CC[C@@H](NC(=O)SC2CCCCC2)C1=O` (some centres unmarked) [Compound 54] yielded a cytotoxic concentration (CC50) at 48 h in data set [1] of more than 100 µM. In data set [2], this compound displayed a TI of more than 6 and an EC50 of 17.8 µM. Moreover, the inhibition at 10 µM in data set [3] (RVP serotype-14, 10 μM compound, 10 minute preincubation with 50 nM RVP, read-out: INHIB (percent inhibition)) stood at 55%.
On to `CCOC(=O)/C=C/[C@H](CCC(N)=O)NC(=O)[C@H](Cc1ccccc1)N(C)C(=O)[C@H](CC(C)C)NC(=O)SC1CCCCC1` [Compound 42], for which the CC50 at 48 h in data set [1] was 50.1 µM. For the same compound, in data set [2], the TI was 111 and the midpoint of the response, the EC50, lay at 0.45 µM. Besides, the kinact/KI in data set [3] came to 15000 M⁻¹ s⁻¹.
For `CCOC(=O)/C=C/[C@H](CCC(N)=O)NC(=O)[C@H](Cc1ccccc1)N(C)C(=O)[C@H](CC(C)C)NC(=O)SCC` [Compound 11, Ethyl-3-(Ethylthiocarbonyl-L-Leu-L-N-Me-Phe-L-Gln)-E-Propenoate] the same measures were more than 320 µM, more than 603, 0.53 µM and 12000 M⁻¹ s⁻¹.
In data set [1], `CCOC(=O)/C=C/[C@H](CCC(N)=O)NC(=O)C1CN(Cc2ccccc2)CCN1C(=O)[C@H](CC(C)C)NC(=O)OCc1ccccc1` (mixture of isomers) [Compound 28, Ethyl-3-(CBZ-L-Leu-DL-(4-Benzyl)-Pipz-L-Gln]-E-Propenoate] returned a CC50 at 48 h of 125 µM. In addition, in data set [2], the TI is recorded as 18 and it took 6.9 µM to reach a half-maximal effect (EC50). Also, in data set [3] (RVP serotype-14), the Ki is 50 µM. Further, the kinact/KI in data set [3] came to 116 M⁻¹ s⁻¹.
In data set [1], `CCOC(=O)/C=C/[C@H](CCC(N)=O)NC(=O)[C@H](Cc1ccccc1)n1cc[nH]c1=O` [Compound 32, Ethyl-3-(L-N-[(1,3-Dihydro-imidazol-2-one)-Phe]-L-Gln)-E-Propenoate] yielded a cytotoxic concentration (CC50) at 48 h of more than 320 µM. In data set [2], this compound displayed a TI of more than 2 and an EC50 of 158 µM. Further, the kinact/KI in data set [3] amounted to 98 M⁻¹ s⁻¹.
For `CCOC(=O)/C=C/[C@H](CCC(N)=O)NC(=O)[C@H](Cc1ccccc1)N(C)C(=O)[C@H](CC(C)C)NC(=O)SCC1CCCCC1` [Compound 40] the same measures were 45 µM, 141, 0.32 µM and 12100 M⁻¹ s⁻¹.
The compound `CCOC(=O)/C=C/[C@H](CCC(N)=O)NC(=O)[C@@H]1[C@@H](c2ccccc2)CCN1C(=O)[C@H](CC(C)C)NC(=O)OCc1ccccc1` [Compound 18, Ethyl-3-[CBZ-L-Leu-L-(3R-Phenyl)-Pro-L-Gln]-E-Propenoate] yielded a half-maximal cytotoxic concentration (CC50) at 48 h in data set [1] of 126 µM. In data set [2], this compound gave a TI of 25 and an EC50 of 5 µM. Also, the Ki in data set [3] (RVP serotype-14) is 7 µM. The kinact/KI in data set [3] worked out at 423 M⁻¹ s⁻¹.
For `CCOC(=O)/C=C/C(CCC(N)=O)NC(=O)[C@@H]1CCc2ncc(NC(=O)SC3CCCC3)c(=O)n21` (some centres unmarked) [Compound 51], the CC50 at 48 h in data set [1] is more than 100 µM. Besides, in data set [2], the TI is recorded as more than 8 and it took 12.6 µM to reach a half-maximal effect (EC50). For the same compound, the kinact/KI in data set [3] was 43900 M⁻¹ s⁻¹.
`CCOC(=O)/C=C/[C@H](CCC(N)=O)NC(=O)[C@H](Cc1ccccc1)N(C)C(=O)[C@H](CSc1ccccc1)NC(=O)SC1CCCC1` [Compound 46] had a CC50 at 48 h in data set [1] of 18 µM. In data set [2], the TI was 33 and the concentration giving a half-maximal response (EC50) was 0.54 µM. Moreover, the kinact/KI in data set [3] amounted to 36800 M⁻¹ s⁻¹.
`CCOC(=O)/C(C)=C/[C@H](CCC(N)=O)NC(=O)[C@H](Cc1ccccc1)N(C)C(=O)[C@H](CC(C)C)NC(=O)SCC(C)C` [Compound 45]: it took 56.2 µM to reach half-maximal cytotoxicity in data set [1] (CC50 at 48 h). In data set [2], the TI is reported as 32 and the EC50 amounted to 1.78 µM. For the same compound, the kinact/KI in data set [3] is 2300 M⁻¹ s⁻¹.
`CCOC(=O)/C=C/[C@H](CCC(N)=O)NC(=O)[C@H](Cc1ccccc1)N(C)C(=O)[C@H](CC(C)C)NC(=O)SC1CCCC1` [Compound 5, Ethyl-3-(Cyclopentylthiocarbonyl-L-Leu-L-N-Me-Phe-L-Gln)-E-Propenoate] displayed a half-maximal cytotoxic concentration (CC50) at 48 h in data set [1] of 51.4 µM. In data set [2], this compound showed a TI of 214 and an EC50 of 0.24 µM. For the same compound, in data set [3], the kinact/KI turned out to be 17300 M⁻¹ s⁻¹.
As to `CCOC(=O)/C(C)=C/[C@H](CCC(N)=O)NC(=O)[C@H](Cc1ccccc1)N(C)C(=O)[C@H](CC(C)C)NC(=O)SC(C)C` [Compound 39], the CC50 at 48 h in data set [1] was determined as 180 µM. Further, in data set [2], the TI is on record as 113 and the EC50 came out at 1.6 µM. Besides, the kinact/KI in data set [3] came to 2330 M⁻¹ s⁻¹.
For `COCCOC(=O)/C=C/[C@H](CCC(N)=O)NC(=O)[C@H](Cc1ccccc1)N(C)C(=O)[C@H](CC(C)C)NC(=O)SC1CCCC1` [Compound 58], in that order: 63 µM, 113, 0.56 µM and 24300 M⁻¹ s⁻¹.
`CC(C)C[C@H](NC(=O)SC1CCCC1)C(=O)N(C)[C@@H](Cc1ccccc1)C(=O)N[C@H](/C=C1\CCOC1=O)CCC(N)=O` [Compound 6, 2-(Cyclopentylthiocarbonyl-L-Leu-L-N-Me-Phe-L-Gln)-E(α-Vinyl-γ-Butyrolactone)] returned a cytotoxic concentration (CC50) at 48 h in data set [1] of 151 µM. In data set [2], the TI worked out at 54 and the EC50 was found to be 2.8 µM. The kinact/KI in data set [3] came out at 9500 M⁻¹ s⁻¹.
For `CCCOC(=O)/C=C/[C@H](CCC(N)=O)NC(=O)[C@H](Cc1ccccc1)N(C)C(=O)[C@H](CC(C)C)NC(=O)SC1CCCC1` [Compound 57] the same measures were 50 µM, 89, 0.56 µM and 13500 M⁻¹ s⁻¹.
Consider `CC(C)C[C@H](NC(=O)OCc1ccccc1)C(=O)N1CCCC[C@H]1C(=O)N[C@H](/C=C/C(=O)N1CCCCO1)CCC(N)=O` [Compound 26, 1-[1',2'-Oxazin-2'-yl]-3-(CBZ-L-Leu-L-Pip-L-Gln)-E-Propenone], for which the CC50 at 48 h in data set [1] was more than 320 µM. In data set [2], this compound came in with a TI of more than 5 and an EC50 of 56 µM. Further, the inhibition constant (Ki) in data set [3] (RVP serotype-14) turned out to be 34 µM. Further, the kinact/KI in data set [3] is 875 M⁻¹ s⁻¹.
For the compound `CCOC(=O)/C=C/[C@H](CCC(N)=O)NC(=O)[C@H](Cc1ccccc1)N(C)C(=O)[C@H](CC(C)C)NC(=O)SCC(C)C` [Compound 44], the 50% cytotoxic concentration (CC50) at 48 h in data set [1] is 56.2 µM. In data set [2], the TI was 104 and the EC50 worked out at 0.54 µM. For the same compound, the kinact/KI in data set [3] was found to be 12300 M⁻¹ s⁻¹.
`CCOC(=O)/C=C/[C@H](CCC(N)=O)NC(=O)Cn1c(-c2ccccc2)ncc(N)c1=O` [Compound 31, Ethyl-3-{[(5-Amino)-2-Phenyl-6Oxo-1,6-Dihydro-1-Pyrimidinyl]-L-Gln}-Propenoate]: the cytotoxic concentration (CC50) at 48 h in data set [1] was more than 320 µM. Moreover, in data set [2], the TI was more than 6 and the EC50 turned out to be 56 µM. Further, the kinact/KI in data set [3] was determined as 39 M⁻¹ s⁻¹.
